Results published in ChEMBL document CHEMBL1201862, “PubChem BioAssay data set” (2004).
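Five compound concentrations were applied to cells in 96-well plates for 48 hours; endpoints were derived by simple linear interpolation of the resulting dose-response curve. GI50 marks 50% less growth.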 The source made the active and inactive calls. Rule as the data show it: active = GI50 up to about 1.1 µM and inactive = higher.

Key:
Assay in all cases: NCI-60 cell line screen, 48 h
SW-620 = system: SW-620
SNB-19 = system: SNB-19
SF-268 = system: SF-268
HT-29 = system: HT-29
RXF 393 = system: RXF 393
UO-31 = system: UO-31
UACC-257 = system: UACC-257
U-251 = system: U-251
OVCAR-8 = system: OVCAR-8
K562 = system: K562
SF-295 = system: SF-295
NCI-H23 = system: NCI-H23
MOLT-4 = system: MOLT-4
LOX IMVI = system: LOX IMVI
NCI-H226 = system: NCI-H226
SK-OV-3 = system: SK-OV-3
CAKI-1 = system: CAKI-1

Measured: GI50

O=C(O)CC[C@H](NC(=O)c1ccc(-n2nc3ccc(=O)cc-3[nH]c2=O)cc1)C(=O)O
inactive: SW-620 > 100 µM | SNB-19 > 100 µM | SF-268 > 100 µM | HT-29 > 100 µM | RXF 393 > 100 µM | UO-31 > 100 µM | UACC-257 > 100 µM | U-251 > 100 µM | OVCAR-8 > 100 µM | K562 > 100 µM | SF-295 > 100 µM | NCI-H23 > 100 µM | MOLT-4 > 100 µM

Cn1nc2ccccc2cc1=O
inactive: SW-620 > 100 µM | SNB-19 > 100 µM | SF-268 > 100 µM | HT-29 > 100 µM | UO-31 > 100 µM | UACC-257 > 100 µM | U-251 > 100 µM | OVCAR-8 > 100 µM | K562 > 100 µM | LOX IMVI > 100 µM | SF-295 > 100 µM | NCI-H23 > 100 µM | NCI-H226 > 100 µM | SK-OV-3 > 100 µM | CAKI-1 > 100 µM

OC1(C23CC4CC(CC(C4)C2)C3)CSCC1(O)C12CC3CC(CC(C3)C1)C2 (centres undefined)
inactive: SW-620 > 100 µM | SNB-19 > 100 µM | SF-268 > 100 µM | HT-29 > 100 µM | UO-31 > 100 µM | UACC-257 > 100 µM | OVCAR-8 > 100 µM | K562 > 100 µM | SF-295 > 100 µM | NCI-H23 > 100 µM | NCI-H226 > 100 µM | SK-OV-3 > 100 µM | CAKI-1 > 100 µM | MOLT-4 > 10 µM

c1ccc2[nH]c(CNc3ccc(C4C[Se]N=N4)cc3)nc2c1 (centres undefined)
inactive: SW-620 95.7 µM | SNB-19 84.1 µM | SF-268 47.3 µM | HT-29 > 100 µM | RXF 393 > 100 µM | UO-31 38.9 µM | U-251 55.8 µM | OVCAR-8 28.5 µM | K562 27.9 µM | LOX IMVI 40.6 µM | SF-295 28.4 µM | NCI-H23 30.3 µM | SK-OV-3 > 100 µM | CAKI-1 > 100 µM | MOLT-4 9.02 µM

CC#CC1C(OC(=O)c2ccccc2)CCCC1(CI)N=[N+]=[N-] (centres undefined)
inactive: SW-620 > 100 µM | SF-268 67 µM | HT-29 40.6 µM | RXF 393 52 µM | UO-31 56.5 µM | UACC-257 38.2 µM | U-251 59.7 µM | OVCAR-8 59.7 µM | K562 28.4 µM | SF-295 87.5 µM | NCI-H23 28.3 µM | NCI-H226 84.3 µM | SK-OV-3 > 100 µM | CAKI-1 > 100 µM | MOLT-4 13.6 µM

CN(C)C(=Nc1nc(N(C)C)s[s+]1)N(C)C
inactive: SW-620 > 100 µM | SNB-19 > 100 µM | SF-268 > 100 µM | HT-29 > 100 µM | RXF 393 > 100 µM | UO-31 > 100 µM | UACC-257 > 100 µM | U-251 > 100 µM | OVCAR-8 > 100 µM | K562 > 100 µM | SF-295 > 100 µM | NCI-H23 > 100 µM | NCI-H226 72.8 µM | SK-OV-3 > 100 µM | CAKI-1 > 100 µM | MOLT-4 > 100 µM

CSc1nc(NC2OC(COC(C)=O)C(OC(C)=O)C(OC(C)=O)C2OC(C)=O)c2c(n1)OCC2=O (centres undefined)
inactive: SW-620 > 100 µM | SNB-19 > 100 µM | SF-268 > 100 µM | HT-29 > 100 µM | UO-31 > 100 µM | UACC-257 > 100 µM | U-251 > 100 µM | OVCAR-8 > 100 µM | K562 > 100 µM | LOX IMVI > 100 µM | SF-295 > 100 µM | NCI-H23 > 100 µM | NCI-H226 > 100 µM | SK-OV-3 > 100 µM | CAKI-1 > 100 µM | MOLT-4 > 100 µM
